Earlier results, collected in patent US6462233B1, “Process for the preparation of sorbic acid” (Daicel Chemical Industries, Ltd., priority 1998, dated 2002).

Conditions: hot water around 100° C.

solubility of sorbic acid: at most 3%
SMILES: C/C=C/C=C/C(=O)O [sorbic acid]
